Source: US11293024B2, “Antisense antibacterial compounds and methods” (priority 2014, dated 2022)

Tested on: existing P. aeruginosa PAO1 biofilm
Assay: Biofilm reduction in MBEC plate (crystal violet)
Assay type: cell-based, Pseudomonas aeruginosa
Settings: at 10 and 5 μM; 2 μg/mL PMBN; 48 hour biofilm
Method: P. aeruginosa PAO1 (5×10^5 cfu/mL) was grown in an MBEC plate for 24 hours. At 24 hours, the pegs were moved to a new 96-well plate containing fresh MHII media and either scrambled, RpsJ, or AcpP PPMO at the indicated concentrations. All wells containing PPMOs (including Scrambled) contained 2 μg/mL of PMBN. The pegs were again moved to new plates with or without PPMOs at 32 and 40 hours. Pegs were processed for crystal violet or visualized with microscopy at 48 hours. […] FIGS. 7B-7D: Spinning Disk confocal microscopy images of 48 hour biofilm treated with (FIG. 7B) 10 μM Scr PPMO #42, (FIG. 7C) 2.5 μM AcpP PPMO #35, (FIG. 7D) 10 μM AcpP PPMO #35. Green channel is PAO1 GFP; Red channel is biofilm stained with 200 μg/mL of Concanavalin A, Alexafluor 647 conjugate.
Pseudomonas aeruginosa Biofilm Reduction in MBEC Plate Protocol
• 1. 10 mL of MH is inoculated with a single colony and incubated at 37° C. and ˜250 rpm for about 5 hours. • 2. The sample is centrifuged for 10 minutes at ˜4000 rpm at 4° C., the supernatant decanted and the pellet resuspended in 10 mL of 150 mM NaCl or PBS. This step is repeated to wash the pellet 3 times. • 3. […] The OD600 of the sample is taken and cfu/mL is calculated. […]
1. […] The final OD570 of the 10× dilution of solution should be approximately 0.500 absorbance. […]
2. OD reading: The OD570 for the 96-well plate from step 1e is determined. […]

PPMO #14: RpsJ PMO GCATTTGACCT, 5′ TEG, 3′ (RXR)4XB CPP
reduction of existing biofilm (crystal violet): statistically significant reduction of biofilm
